We go through three compounds from ChEMBL document CHEMBL5653631, “A Potent and Selective ULK1 Inhibitor Suppresses Autophagy and Sensitizes Cancer Cells to Nutrient Stress” (iScience, 2018).

Test [1] addresses Protein-tyrosine kinase 2-beta (Homo sapiens) (UniProt Q14289). As to the kind of experiment: Inhibition of human recombinant PYK2 at 40 nM in presence of ATP by radiometric assay relative to control.
Test [2] concerns the target Cyclin-dependent kinase 6 (Homo sapiens) (UniProt Q00534). As to the kind of experiment: Inhibition of human recombinant CDK6 at 40 nM related to control ULK1.
Test [3] concerns the target Serine/threonine-protein kinase NIM1 (Homo sapiens) (UniProt Q8IY84). As to the kind of experiment: Inhibition of human recombinant NIM1 at 40 nM in presence of ATP by radiometric assay relative to control.
Test [4] concerns the target Serine/threonine-protein kinase PLK2 (Homo sapiens) (UniProt Q9NYY3). As to the kind of experiment: Inhibition of human recombinant PLK2 at 500 nM related to control ULK1.
In test [5] the target is Tyrosine-protein kinase Lyn (Homo sapiens) (UniProt P07948). Put plainly: Inhibition of human recombinant LYN at 500 nM related to control ULK1.
Test [6] deals with T1, Rhodopsin kinase GRK1 (Homo sapiens) (UniProt Q15835).
T1 sequence (whole entry): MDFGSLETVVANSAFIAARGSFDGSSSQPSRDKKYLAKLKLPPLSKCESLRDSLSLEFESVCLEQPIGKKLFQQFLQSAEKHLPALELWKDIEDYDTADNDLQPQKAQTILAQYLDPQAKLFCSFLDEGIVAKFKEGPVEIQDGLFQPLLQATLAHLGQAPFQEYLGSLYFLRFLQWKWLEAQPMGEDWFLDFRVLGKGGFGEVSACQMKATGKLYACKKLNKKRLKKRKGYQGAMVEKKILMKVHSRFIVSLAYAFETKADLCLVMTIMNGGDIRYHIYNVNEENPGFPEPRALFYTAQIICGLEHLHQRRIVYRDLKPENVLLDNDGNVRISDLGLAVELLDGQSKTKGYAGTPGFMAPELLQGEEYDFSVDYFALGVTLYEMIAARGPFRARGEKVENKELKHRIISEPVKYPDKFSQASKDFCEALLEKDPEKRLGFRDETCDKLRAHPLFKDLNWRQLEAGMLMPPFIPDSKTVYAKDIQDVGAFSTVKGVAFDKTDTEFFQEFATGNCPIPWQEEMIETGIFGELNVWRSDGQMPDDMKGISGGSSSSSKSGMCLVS
Put plainly: Inhibition of human recombinant RHOK at 500 nM in presence of ATP by radiometric assay relative to control.

Test [7] deals with Serine/threonine-protein kinase 32A (Homo sapiens) (UniProt Q8WU08). Put plainly: Inhibition of human recombinant YANK1 at 500 nM related to control ULK1.
Test [8] deals with Tyrosine-protein kinase FRK (Homo sapiens) (UniProt P42685). Put plainly: Inhibition of human recombinant FRK at 15 nM in presence of ATP by radiometric assay relative to control.
Test [9] deals with Cell division cycle 7-related protein kinase (Homo sapiens) (UniProt O00311). Put plainly: Inhibition of human recombinant CDC7 at 15 nM related to control ULK1.
For test [10], the target named is T2, Dual specificity mitogen-activated protein kinase kinase 6 (Homo sapiens) (UniProt P52564).
T2 sequence (whole entry): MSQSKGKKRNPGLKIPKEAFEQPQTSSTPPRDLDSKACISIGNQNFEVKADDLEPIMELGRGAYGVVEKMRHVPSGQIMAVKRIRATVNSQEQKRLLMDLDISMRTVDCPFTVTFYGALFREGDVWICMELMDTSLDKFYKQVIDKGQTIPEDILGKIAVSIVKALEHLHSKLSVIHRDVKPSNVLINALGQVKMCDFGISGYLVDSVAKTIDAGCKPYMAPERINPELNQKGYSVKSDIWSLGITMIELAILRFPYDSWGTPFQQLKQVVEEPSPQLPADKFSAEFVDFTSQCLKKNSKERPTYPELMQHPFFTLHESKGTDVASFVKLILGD
As to the kind of experiment: Inhibition of human recombinant MAP2K6 at 15 nM related to control ULK1.

The target in test [11] is T3, Ephrin type-A receptor 3 (Homo sapiens) (UniProt P29320).
T3 sequence (whole entry): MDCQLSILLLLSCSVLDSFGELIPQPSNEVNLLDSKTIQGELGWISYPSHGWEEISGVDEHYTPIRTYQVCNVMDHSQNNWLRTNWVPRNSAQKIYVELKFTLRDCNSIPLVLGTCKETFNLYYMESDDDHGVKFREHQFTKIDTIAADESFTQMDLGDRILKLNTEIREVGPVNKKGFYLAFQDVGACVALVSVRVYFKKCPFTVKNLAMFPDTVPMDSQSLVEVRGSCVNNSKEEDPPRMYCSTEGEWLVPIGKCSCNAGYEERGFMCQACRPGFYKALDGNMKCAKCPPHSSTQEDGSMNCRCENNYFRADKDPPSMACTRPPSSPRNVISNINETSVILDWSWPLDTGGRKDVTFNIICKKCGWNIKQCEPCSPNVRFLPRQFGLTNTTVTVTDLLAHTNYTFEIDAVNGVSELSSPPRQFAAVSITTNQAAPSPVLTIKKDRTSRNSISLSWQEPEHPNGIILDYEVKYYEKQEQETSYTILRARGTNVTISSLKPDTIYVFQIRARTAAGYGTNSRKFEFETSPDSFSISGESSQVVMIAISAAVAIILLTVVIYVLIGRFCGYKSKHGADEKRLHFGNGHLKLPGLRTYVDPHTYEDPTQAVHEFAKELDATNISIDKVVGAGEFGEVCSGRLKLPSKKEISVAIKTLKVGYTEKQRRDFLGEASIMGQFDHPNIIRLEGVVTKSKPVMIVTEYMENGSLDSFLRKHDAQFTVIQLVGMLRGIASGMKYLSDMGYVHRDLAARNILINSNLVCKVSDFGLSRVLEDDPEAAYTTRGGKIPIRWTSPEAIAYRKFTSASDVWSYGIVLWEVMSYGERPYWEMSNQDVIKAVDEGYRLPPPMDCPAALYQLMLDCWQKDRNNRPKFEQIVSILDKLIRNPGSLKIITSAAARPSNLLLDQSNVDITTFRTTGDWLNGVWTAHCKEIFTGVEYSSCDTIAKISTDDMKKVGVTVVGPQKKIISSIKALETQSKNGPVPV
As to the kind of experiment: Inhibition of human recombinant EphA3 at 15 nM in presence of ATP by radiometric assay relative to control.

The target of test [12] is 3-phosphoinositide-dependent protein kinase 1 (Homo sapiens) (UniProt O15530). Put plainly: Inhibition of human recombinant PDK1 at 15 nM related to control ULK1.
The target of test [13] is Tyrosine-protein kinase Blk (Homo sapiens) (UniProt P51451). Put plainly: Inhibition of human recombinant BLK at 15 nM related to control ULK1.
Chain of Tyrosine-protein kinase Blk (Homo sapiens) (P51451 2-505 limits assumed): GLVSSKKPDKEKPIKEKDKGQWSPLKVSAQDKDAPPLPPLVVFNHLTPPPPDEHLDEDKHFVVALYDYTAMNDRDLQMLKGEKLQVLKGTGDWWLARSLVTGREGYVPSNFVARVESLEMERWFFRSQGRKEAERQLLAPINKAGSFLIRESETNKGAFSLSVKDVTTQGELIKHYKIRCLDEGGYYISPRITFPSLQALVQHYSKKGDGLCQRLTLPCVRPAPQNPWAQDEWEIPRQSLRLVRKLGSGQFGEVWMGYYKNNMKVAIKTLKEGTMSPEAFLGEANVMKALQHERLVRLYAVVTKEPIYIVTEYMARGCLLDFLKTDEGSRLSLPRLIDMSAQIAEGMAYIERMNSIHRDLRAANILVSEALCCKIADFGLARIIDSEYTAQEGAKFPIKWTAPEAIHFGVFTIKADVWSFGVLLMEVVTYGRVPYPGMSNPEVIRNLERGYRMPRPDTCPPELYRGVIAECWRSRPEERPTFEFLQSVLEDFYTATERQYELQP

Chain of Tyrosine-protein kinase Lyn (Homo sapiens) (P07948 2-512 limits assumed): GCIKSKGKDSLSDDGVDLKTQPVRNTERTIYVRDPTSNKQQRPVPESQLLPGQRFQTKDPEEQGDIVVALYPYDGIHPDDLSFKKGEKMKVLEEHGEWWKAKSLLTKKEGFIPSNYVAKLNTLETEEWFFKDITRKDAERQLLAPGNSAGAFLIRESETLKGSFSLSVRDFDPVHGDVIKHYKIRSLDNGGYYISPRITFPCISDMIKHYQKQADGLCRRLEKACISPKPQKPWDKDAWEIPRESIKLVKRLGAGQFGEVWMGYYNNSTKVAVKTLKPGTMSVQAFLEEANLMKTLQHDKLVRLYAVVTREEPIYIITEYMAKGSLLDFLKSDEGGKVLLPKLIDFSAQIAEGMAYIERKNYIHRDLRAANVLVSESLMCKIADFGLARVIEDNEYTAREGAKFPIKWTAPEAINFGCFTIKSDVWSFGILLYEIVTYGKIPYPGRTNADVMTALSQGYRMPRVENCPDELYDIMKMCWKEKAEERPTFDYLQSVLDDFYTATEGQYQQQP
Chain of Serine/threonine-protein kinase NIM1 (Homo sapiens) (Q8IY84 whole entry): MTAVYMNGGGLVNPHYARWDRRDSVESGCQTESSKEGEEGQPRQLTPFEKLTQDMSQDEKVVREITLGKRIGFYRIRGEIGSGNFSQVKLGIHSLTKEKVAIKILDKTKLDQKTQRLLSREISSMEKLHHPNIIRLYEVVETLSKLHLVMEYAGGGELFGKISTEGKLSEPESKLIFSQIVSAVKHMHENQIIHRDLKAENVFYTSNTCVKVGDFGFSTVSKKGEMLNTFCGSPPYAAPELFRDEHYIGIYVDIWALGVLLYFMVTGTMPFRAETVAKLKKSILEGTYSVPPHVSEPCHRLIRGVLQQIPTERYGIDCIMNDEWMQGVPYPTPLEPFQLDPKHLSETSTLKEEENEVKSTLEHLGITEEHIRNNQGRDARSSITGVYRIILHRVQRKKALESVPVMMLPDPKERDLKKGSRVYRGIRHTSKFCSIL
Chain of Tyrosine-protein kinase FRK (Homo sapiens) (P42685 whole entry): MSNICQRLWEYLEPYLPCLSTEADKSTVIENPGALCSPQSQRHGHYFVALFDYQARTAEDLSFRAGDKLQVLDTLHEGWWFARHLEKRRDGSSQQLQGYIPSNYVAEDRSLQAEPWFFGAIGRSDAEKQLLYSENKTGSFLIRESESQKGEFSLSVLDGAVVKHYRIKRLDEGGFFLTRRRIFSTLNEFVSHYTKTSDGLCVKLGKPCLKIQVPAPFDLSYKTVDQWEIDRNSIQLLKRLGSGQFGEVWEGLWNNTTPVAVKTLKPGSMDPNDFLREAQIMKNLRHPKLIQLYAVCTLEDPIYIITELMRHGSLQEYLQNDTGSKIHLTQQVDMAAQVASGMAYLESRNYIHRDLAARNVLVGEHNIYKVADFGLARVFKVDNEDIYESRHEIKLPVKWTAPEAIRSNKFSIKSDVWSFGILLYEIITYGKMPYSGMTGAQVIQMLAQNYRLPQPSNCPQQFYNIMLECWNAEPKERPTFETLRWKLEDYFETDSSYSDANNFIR
Chain of 3-phosphoinositide-dependent protein kinase 1 (Homo sapiens) (O15530 whole entry, looked up): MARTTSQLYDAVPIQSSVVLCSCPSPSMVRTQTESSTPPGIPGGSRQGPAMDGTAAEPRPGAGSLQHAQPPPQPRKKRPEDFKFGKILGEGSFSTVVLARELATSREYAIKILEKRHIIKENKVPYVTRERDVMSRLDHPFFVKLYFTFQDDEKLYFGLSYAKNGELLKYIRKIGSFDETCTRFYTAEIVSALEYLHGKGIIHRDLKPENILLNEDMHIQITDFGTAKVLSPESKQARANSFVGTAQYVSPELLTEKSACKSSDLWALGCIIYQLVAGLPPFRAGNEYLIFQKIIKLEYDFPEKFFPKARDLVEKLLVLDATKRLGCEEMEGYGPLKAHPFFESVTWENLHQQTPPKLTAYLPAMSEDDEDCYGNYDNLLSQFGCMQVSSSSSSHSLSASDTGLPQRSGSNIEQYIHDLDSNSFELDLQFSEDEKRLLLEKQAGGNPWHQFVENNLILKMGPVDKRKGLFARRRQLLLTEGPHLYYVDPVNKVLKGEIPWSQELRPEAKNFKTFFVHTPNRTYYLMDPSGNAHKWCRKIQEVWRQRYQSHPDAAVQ
Chain of Cell division cycle 7-related protein kinase (Homo sapiens) (O00311 whole entry, looked up): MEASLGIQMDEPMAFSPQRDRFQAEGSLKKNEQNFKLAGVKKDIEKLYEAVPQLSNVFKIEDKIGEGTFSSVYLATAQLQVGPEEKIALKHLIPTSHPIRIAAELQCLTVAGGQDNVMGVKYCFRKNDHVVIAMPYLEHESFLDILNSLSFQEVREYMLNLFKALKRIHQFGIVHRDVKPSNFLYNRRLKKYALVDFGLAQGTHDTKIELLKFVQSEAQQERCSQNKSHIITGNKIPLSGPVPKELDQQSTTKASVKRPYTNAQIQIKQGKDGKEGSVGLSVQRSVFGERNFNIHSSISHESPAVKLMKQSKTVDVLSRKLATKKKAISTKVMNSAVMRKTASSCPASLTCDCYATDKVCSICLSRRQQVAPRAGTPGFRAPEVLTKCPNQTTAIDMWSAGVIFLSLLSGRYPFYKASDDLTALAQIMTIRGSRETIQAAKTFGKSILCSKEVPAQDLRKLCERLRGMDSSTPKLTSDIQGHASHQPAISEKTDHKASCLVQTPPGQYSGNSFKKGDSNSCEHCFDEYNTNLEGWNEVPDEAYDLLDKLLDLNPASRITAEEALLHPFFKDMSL
Chain of Cyclin-dependent kinase 6 (Homo sapiens) (Q00534 whole entry): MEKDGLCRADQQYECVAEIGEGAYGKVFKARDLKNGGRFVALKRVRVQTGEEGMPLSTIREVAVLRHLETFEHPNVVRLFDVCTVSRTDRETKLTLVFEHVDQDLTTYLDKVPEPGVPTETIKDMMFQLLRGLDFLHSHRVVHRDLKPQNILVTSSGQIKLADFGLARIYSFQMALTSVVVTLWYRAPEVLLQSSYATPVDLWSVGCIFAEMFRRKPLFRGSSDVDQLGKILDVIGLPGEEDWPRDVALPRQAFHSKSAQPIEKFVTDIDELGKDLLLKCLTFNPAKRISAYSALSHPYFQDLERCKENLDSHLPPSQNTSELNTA
Chain of Protein-tyrosine kinase 2-beta (Homo sapiens) (Q14289 whole entry, looked up): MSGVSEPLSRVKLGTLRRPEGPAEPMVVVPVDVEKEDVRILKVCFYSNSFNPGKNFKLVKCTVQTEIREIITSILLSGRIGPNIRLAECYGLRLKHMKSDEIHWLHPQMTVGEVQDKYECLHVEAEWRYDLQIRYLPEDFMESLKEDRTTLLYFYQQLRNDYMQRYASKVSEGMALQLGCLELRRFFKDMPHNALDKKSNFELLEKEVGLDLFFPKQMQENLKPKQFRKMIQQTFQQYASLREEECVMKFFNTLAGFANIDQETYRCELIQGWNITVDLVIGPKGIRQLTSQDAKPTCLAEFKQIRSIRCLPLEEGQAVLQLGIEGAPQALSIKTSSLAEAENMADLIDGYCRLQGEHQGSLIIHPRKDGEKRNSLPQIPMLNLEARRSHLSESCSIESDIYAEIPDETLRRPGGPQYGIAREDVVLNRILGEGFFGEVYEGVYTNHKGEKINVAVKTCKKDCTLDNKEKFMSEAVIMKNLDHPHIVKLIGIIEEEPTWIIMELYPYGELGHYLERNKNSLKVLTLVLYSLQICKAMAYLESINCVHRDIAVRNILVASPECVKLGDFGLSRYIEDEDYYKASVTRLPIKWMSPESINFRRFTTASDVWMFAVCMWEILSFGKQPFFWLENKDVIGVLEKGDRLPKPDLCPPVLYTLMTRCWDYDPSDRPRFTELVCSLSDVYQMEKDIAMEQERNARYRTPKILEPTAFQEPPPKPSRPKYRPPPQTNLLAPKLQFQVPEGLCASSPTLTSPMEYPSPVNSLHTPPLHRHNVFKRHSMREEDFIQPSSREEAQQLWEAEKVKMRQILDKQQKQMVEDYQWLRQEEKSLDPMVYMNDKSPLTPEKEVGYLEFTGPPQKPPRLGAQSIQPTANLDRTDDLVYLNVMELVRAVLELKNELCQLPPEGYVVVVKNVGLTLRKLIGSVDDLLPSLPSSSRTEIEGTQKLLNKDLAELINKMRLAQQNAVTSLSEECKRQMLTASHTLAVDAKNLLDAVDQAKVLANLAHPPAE
Chain of Serine/threonine-protein kinase 32A (Homo sapiens) (Q8WU08 whole entry): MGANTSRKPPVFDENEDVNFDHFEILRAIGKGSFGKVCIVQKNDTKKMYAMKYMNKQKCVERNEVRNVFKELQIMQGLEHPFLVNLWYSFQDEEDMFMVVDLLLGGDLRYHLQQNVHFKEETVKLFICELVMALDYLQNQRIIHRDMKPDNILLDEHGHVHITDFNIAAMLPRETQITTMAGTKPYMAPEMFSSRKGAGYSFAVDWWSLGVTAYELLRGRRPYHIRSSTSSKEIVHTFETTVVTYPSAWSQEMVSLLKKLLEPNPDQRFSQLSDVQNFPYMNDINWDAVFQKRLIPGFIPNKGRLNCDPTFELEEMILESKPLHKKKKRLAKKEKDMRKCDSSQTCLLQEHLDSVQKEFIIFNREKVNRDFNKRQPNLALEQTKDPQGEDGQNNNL

As for `O=C(N[C@@H](C1CC1)C(F)(F)F)c1cc(-c2cnn3cc(-c4ccc(F)cc4)cnc23)cs1`, the inhibition (commonly the percentage by which the read-out fell short of the control) was found to be 3% in test [1] and 0% in [3]. Also, in [2], the fold change (FC) turned out to be 0.04.
In the case of `CNC(=O)c1ccccc1Oc1nc(Nc2cc(OC)c(OC)c(OC)c2)ncc1Br`, the fold change (FC) amounted to 0.05 in [4], 0.41 in test [5] and 0 in [7]. In test [6], the inhibition stood at 0%.
`CC(C)[C@H](NC(=O)c1cc(-c2cnn3cc(-c4ccc(OCCN5CCCCC5)cc4)cnc23)cs1)C(F)(F)F`: the results for the inhibition in [8] and in test [11] were 13% and 3%, respectively. Besides, the fold change (FC) in test [9] is 0.09; in test [10], 0.06; in [12] it was 0.07; in test [13] it was 0.11.
